Converted amounts (≈) assume the structure as drawn. “And” between values parts separate entries of the source, which are not always exact repeats. Identical values can stand only once. Like-named read-outs stand apart in the source and are kept apart here.
How the values were obtained:
[1] = system: STZ-induced diabetic mice; assay: Glycosylated serum protein (GSP) of STZ-induced diabetic mice, NBT colorimetric method; format: in vivo; conditions: 300 mg/kg p.o. two times a day, n = 8
Procedure: (§1) Total 32 hyperglycemic mice were divided into four groups according to their FBG (8 mice per group): control (distilled water), MFE 100 (100 mg/kg BW), MFE 200 (200 mg/kg BW), and metformin (300 mg/kg BW). Sample suspended in distilled water containing 0.3% CMC-Na was administered p.o. two times a day for 2 weeks. FBG of the diabetic mice was determined on the day 7 and 14 as described before. On the day 14, the mice were sacrificed under diethyl ether anesthesia after the FBG determination. Blood was collected from the ophthalmic vein and allowed to clot at room temperature for 30 min. The serum was separate by centrifuging at 4000 rpm for 10 min with a refrigerated centrifuge. Liver and kidney were excised. Samples were stored at −20°C until used.
GSP level was measured according to the nitroblue tetrazolium (NBT) colorimetric method using commercial kits purchased from Nanjing Jiancheng Bioengineering Institute (Nanjing, China). This method based on the ability of the ketoamine group of glycated proteins to reduce tetrazolium salt under alkaline conditions. Fructosamine was used as standard.

[2] = system: STZ-induced diabetic mice; assay: GSH-Px activity in kidney and liver of STZ-induced diabetic mice; format: in vivo; conditions: 300 mg/kg, 2 weeks
Procedure: as §1, with “Samples were stored at −20°C until used.” left out
10% solution of tissue homogenate was prepared as follows. […] Protein content of tissue homogenate was determined according to the Bradford method. […] The superoxide dismutase (SOD), catalase (CAT) and glutathione peroxidase (GSH-Px) activities in liver and kidney tissue, the SOD and CAT activities in serum were determined using the respective commercial kits obtained from Nanjing Jiancheng Bioengineering Institute (Nanjing, China). SOD activity was determined by the nitrite method. SOD activity was expressed as units/mg protein or units/mL serum. The activity of CAT was measured using colorimetric method based on the decomposition of hydrogen peroxide (H2O2) by CAT. […]

[3] = system: STZ-induced diabetic mice; assay: Fasting blood glucose of STZ-induced diabetic mice; format: in vivo; conditions: 300 mg/kg p.o. two times a day, n = 8
Procedure: The mice were given 5% glucose solution orally in order to stave off the hypoglycemia during the first day after the injection of STZ [24]. In testing the FBG of the mice, a standard protocol developed by the American National Institute of Health was carried out. […] The FBG was measured using the Accu-Check Active Blood Glucose Meter (Roche Diagnostics, Mannheim, Germany). […] Sample suspended in distilled water containing 0.3% CMC-Na was administered p.o. two times a day for 2 weeks. FBG of the diabetic mice was determined on the day 7 and 14 as described before. On the day 14, the mice were sacrificed under diethyl ether anesthesia after the FBG determination. Blood was collected from the ophthalmic vein and allowed to clot at room temperature for 30 min. The serum was separate by centrifuging at 4000 rpm for 10 min with a refrigerated centrifuge. Liver and kidney were excised. Samples were stored at −20°C until used.

[4] = system: STZ-induced diabetic mice; assay: CAT activity in serum, kidney and liver of STZ-induced diabetic mice; format: in vivo; conditions: 300 mg/kg, 2 weeks
Procedure: as §1
(§2) 10% solution of tissue homogenate was prepared as follows. Pieces of liver or kidney were homogenized in 9 volumes (w/v) ice-cold saline and centrifuged at 4000 rpm for 8 min. The supernatants were separated and stored at 4°C for analysis. Protein content of tissue homogenate was determined according to the Bradford method. Bovine serum albumin was used as standard. The superoxide dismutase (SOD), catalase (CAT) and glutathione peroxidase (GSH-Px) activities in liver and kidney tissue, the SOD and CAT activities in serum were determined using the respective commercial kits obtained from Nanjing Jiancheng Bioengineering Institute (Nanjing, China). SOD activity was determined by the nitrite method. SOD activity was expressed as units/mg protein or units/mL serum. The activity of CAT was measured using colorimetric method based on the decomposition of hydrogen peroxide (H2O2) by CAT. The enzyme catalysis was stopped by adding the solution of ammonium molybdate which can react with the rest H2O2 and give a yellow product. The product can be measured at 405 nm by its absorbance. The CAT activities of tissue or serum were presented as units/mg protein or units/mL serum respectively. GSH-Px activity was also measured according to a colorimetric method developed by Sedlak. […]

[5] = system: STZ-induced diabetic mice; assay: SOD activity in serum, kidney and liver of STZ-induced diabetic mice; format: in vivo; conditions: 300 mg/kg, 2 weeks
Procedure: as §1, §2

[6] = biological target: T1, α-Glucosidase type I (EC 3.2.1.20) (Saccharomyces cerevisiae, UniProt P53341); assay: biochemical
T1 construct: purchased Sigma-Aldrich Chemical Co. (St. Louis, MO)
T1 sequence (P53341 whole entry): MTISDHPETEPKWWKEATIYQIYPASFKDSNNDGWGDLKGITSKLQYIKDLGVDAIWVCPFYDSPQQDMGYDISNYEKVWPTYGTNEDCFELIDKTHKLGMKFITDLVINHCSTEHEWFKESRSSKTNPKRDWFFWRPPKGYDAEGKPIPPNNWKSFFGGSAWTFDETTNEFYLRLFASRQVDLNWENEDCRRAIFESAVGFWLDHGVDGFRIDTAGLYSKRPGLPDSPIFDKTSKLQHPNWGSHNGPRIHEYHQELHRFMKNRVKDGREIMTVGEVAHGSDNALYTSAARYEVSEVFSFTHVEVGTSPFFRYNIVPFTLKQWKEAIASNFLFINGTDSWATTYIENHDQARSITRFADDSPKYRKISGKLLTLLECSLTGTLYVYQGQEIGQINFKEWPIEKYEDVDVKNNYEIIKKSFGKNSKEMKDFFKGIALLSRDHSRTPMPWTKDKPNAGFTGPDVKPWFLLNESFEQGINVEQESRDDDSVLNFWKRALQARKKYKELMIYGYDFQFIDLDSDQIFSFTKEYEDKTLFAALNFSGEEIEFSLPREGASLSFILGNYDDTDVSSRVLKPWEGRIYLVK
From the text: α-Glucosidase type I (EC 3.2.1.20) from baker's yeast, p-nitrophenyl α-D-glucopyranoside (PNPG), streptozotocin (STZ), were purchased from Sigma-Aldrich Chemical Co. (St. Louis, MO). […] Phenazine methosulfate was purchased from J&K Chemical Ltd. (Shanghai, China). 2,2-Diphenyl-1-picrylhdrazyl (DPPH) was product of Aladdin Chemistry Co. Ltd. (Shanghai, China). Silica gel (200–300 mesh, Anhui Liangchen Silicon Material Co. Ltd. Anhui, China), Sephadex LH-20 (Pharmacia Biothech AB, Uppsala, Sweden), and ODS (40–60 μm, Merck KGaA, Darastadt, Germany) were used for column chromatography. HPLC-grade methanol was purchased from Jiangsu Hanbang Science and Technology Co. Ltd. (Nanjing, China). All other analytical chemicals and reagents were purchased from Sinopharm Chemical Regent Co. Ltd. (Shanghai, China).
The α-glucosidase inhibitory studies were performed spectrophotometrically on 96-well microplate reader according to a reported method. […] The assay was performed in triplicate.

[7] = Superoxide anion radical-scavenging assay (NADH/PMS system); conditions: mean ± SD, n = 3; for EC50: isolated compounds
From the text: Superoxide radical were generated by the NADH/PMS system according to a reported protocol. Gallic acid was used as positive control.

[8] = DPPH radical-scavenging assay of the isolated compounds; conditions: mean ± SD, n = 3
Procedure: (§3) The DPPH radical-scavenging assay was performed according to a previously described method. All tests were performed in triplicate. Ascorbic acid and gallic acid were used as positive controls.

[9] = DPPH radical-scavenging assay of the extracts; conditions: DPPH used was 2,2-Di(4-tert-octylphenyl)-1-picrylhydrazyl, mean ± SD, n = 3
Procedure: as §3

[10] = isolated compounds, mean ± SD, n = 3, read-out: IC50 α-glucosidase

SMILES	IC50 [6, 10] [µM]	EC50 [7] [µM]	EC50 [8] [µM]	also measured
CN(C)C(=N)N=C(N)N [Metformin]				GSP day 14 [1]: 6.06±0.47 mmol/L and 6.06±0.47b mmol/L; Kidney GSH-Px ([2]; kidney): 240.36±40.31; Liver GSH-Px ([2]; liver): 275.78±21.02; FBG day 0 ([3]; day 0): 25.66 ± 5.95 mmol/L; FBG day 7 ([3]; day 7): 15.44±4.57c mmol/L; FBG day 14 ([3]; day 14): 17.38±5.31c mmol/L; Kidney CAT ([4]; kidney): 21.85±3.90b units/mg protein; Liver CAT ([4]; liver): 27.07±2.74 units/mg protein; Serum CAT ([4]; serum): 50.53±17.87c units/mL serum; Kidney SOD ([5]; kidney): 246.56±24.80b units/mg protein; Liver SOD ([5]; liver): 145.03±13.79 units/mg protein; Serum SOD ([5]; serum): 251.29±28.78b units/mL serum
O=C1c2c(O)cc(O[C@@H]3O[C@H](CO)[C@@H](O)[C@H](O)[C@H]3O)cc2O[C@H](c2ccc(O)cc2)[C@H]1O [Compound 11, dihydrokaempferol 7-O-β-D-glucopyranoside]	933 ± 98.8	58.3 ± 2.39	6.46 ± 0.39	
COC(=O)Cc1c(O)cc(O)cc1OC(=O)c1ccc(O)c(O)c1 [Compound 16, 2-O-(3,4-dihydroxybenzoyl)-2,4,6-trihydroxyphenylmethylacetate]		37.5 ± 2.62	10.8 ± 0.94	IC50 [6]: 31.7 ± 3.38 µM
O=C1O[C@H]([C@@H](O)CO)C(O)=C1O [Ascorbic acid, reference compound]		> 500	33.5 ± 1.2	
O=C1C[C@@H](c2ccc(O[C@@H]3O[C@H](CO)[C@@H](O)[C@H](O)[C@H]3O)c(O)c2)Oc2cc(O)cc(O)c21 [Compound 9, 5,7,3′-trihydroxy-flavanone-4′-O-β-D-glucopyranoside]		90.7 ± 8.28	79.4 ± 4.74	IC50 [6]: 409 ± 38.7 µM
CC(C)=CCc1c(O)ccc(C(=O)/C=C/c2ccc(O)cc2O)c1O [Compound 13, 2,4,2′,4′,-tetrahydroxy-3′-(3-methyl-2-butenyl)-chalcone]	50 ± 3.18	191 ± 15	> 500	
C[C@@H]1O[C@@H](OC[C@H]2O[C@@H](Oc3c(-c4ccc(O)c(O)c4)oc4cc(O)cc(O)c4c3=O)[C@H](O)[C@@H](O)[C@@H]2O)[C@H](O)[C@H](O)[C@H]1O [Compound 4, quercetin 3-O-β-D-rutinoside]	166 ± 11.7	30.6 ± 0.99	9.76 ± 0.61	
Oc1ccccc1O [Compound 25, pyrocatechol]		45.8 ± 2.97	6.74 ± 0.28	
CCOC(=O)c1ccc(O)c(O)c1 [Compound 21, protocatechuic acid ethyl ester]		606 ± 25.8	9.04 ± 0.21	
O=C(O)c1ccc(O)c(O)c1 [Compound 18, protocatechuic acid]		101 ± 8.27	11.9 ± 0.69	
O=c1c(O)c(-c2ccc(O)c(O)c2)oc2cc(O)cc(O)c12 [Compound 1, quercetin]		27.9 ± 0.59	11.9 ± 0.72	
O=C1C[C@@H](c2ccc(O)c(O[C@@H]3O[C@H](CO)[C@@H](O)[C@H](O)[C@H]3O)c2)Oc2cc(O)cc(O)c21 [Compound 10, 5,7,4′-trihydroxy-flavanone-3′-O-β-D-glucopyranoside]	728 ± 67.7	194 ± 8.12	222 ± 13.8	
COC(=O)c1ccc(O)c(O)c1 [Compound 20, protocatechuic acid methyl ester]		214 ± 16.9	10.7 ± 0.34	
O=c1c(O)c(-c2ccc(O)c(O)c2)oc2cc(O[C@@H]3O[C@H](CO)[C@@H](O)[C@H](O)[C@H]3O)cc(O)c12 [Compound 5, quercetin 7-O-β-D-glucopyranoside]		24.6 ± 1.67	9.8 ± 0.53	IC50 [6]: 370 ± 31.2 µM
O=C(O)Cc1c(O)cc(O)cc1OC(=O)c1ccc(O)c(O)c1 [Compound 15, 2-O-(3,4-dihydroxybenzoyl)-2,4,6-trihydroxyphenylacetic acid]		15.2 ± 0.7	7.87 ± 0.73	IC50 [6]: 116 ± 6.75 µM
CC(=O)OC[C@H]1O[C@@H](Oc2c(-c3ccc(O)c(O)c3)oc3cc(O)cc(O)c3c2=O)[C@H](O)[C@@H](O)[C@@H]1O [Compound 3, quercetin 3-O-(6′′-O-acetyl)-β-D-glucopyranoside]	310 ± 12.7	45.1 ± 1.66	11.8 ± 1.04	
C[C@@H]1O[C@@H](OC[C@H]2O[C@@H](Oc3c(-c4ccc(O)cc4)oc4cc(O)cc(O)c4c3=O)[C@H](O)[C@@H](O)[C@@H]2O)[C@H](O)[C@H](O)[C@H]1O [Compound 8, kaempferol 3-O-β-D-rutinoside]		196 ± 7.98	152 ± 5.9	IC50 [6]: 178.3 ± 0.35 µM
CC(C)=CCc1c(O)ccc(C(=O)/C=C/c2ccc(O)cc2)c1O [Compound 12, isobavachalcone]	67.3 ± 5.51	150 ± 9.1	> 500	
O=C(O)c1cc(O)c(O)c(O)c1 [Gallic acid, reference compound]		10.1 ± 0.39	5.18 ± 0.34	EC50 Superoxide anion ([7]; extracts): 5.21 ± 0.27 µg/mL (≈ 30.6 µM); EC50 DPPH [9]: 4.95 ± 0.24 µg/mL (≈ 29.1 µM)
O=c1c(O[C@@H]2O[C@H](CO)[C@@H](O)[C@H](O)[C@H]2O)c(-c2ccc(O)c(O)c2)oc2cc(O)cc(O)c12 [Compound 2, quercetin-3-O-β-D-glucopyranoside]	165 ± 11.6		7.89 ± 0.5	
C=C(C)C1Cc2c(ccc(C(=O)/C=C/c3ccc(O)cc3)c2O)O1 (stereo not shown) [Compound 14]		175 ± 9.72	> 500	IC50 [6]: 225 ± 4.79 µM
O=c1c(O[C@@H]2O[C@H](CO)[C@@H](O)[C@H](O)[C@H]2O)c(-c2ccc(O)cc2)oc2cc(O)cc(O)c12 [Compound 7, kaempferol 3-O-β-D-glucopyranoside]		122 ± 5.49	301 ± 13.8	
O=c1c(O[C@@H]2O[C@H](CO)[C@@H](O)[C@H](O)[C@H]2O)c(-c2ccc(O)c(O)c2)oc2cc(O[C@@H]3O[C@H](CO)[C@@H](O)[C@H](O)[C@H]3O)cc(O)c12 [Compound 6, quercetin 3,7-di-O-β-D-glucopyranoside]	600 ± 45.9	50.7 ± 6.7	9.18 ± 0.97	
OCCc1ccc(O)cc1 [Compound 24, 2-(4-hydroxyphenyl)ethanol]		417 ± 23.9	> 500	
